Test results reported in patent US20040231558A1, “Water-color ink” (priority 2001, published 2004).

Columns and labels:
[1] = Evaluation of light fastness-2 (OD value of printed portion after 400 hours xenon fadeometer); assay type: physicochemical; conditions: for (A)-2 light fastness-2: ink prepared as in Example 1 from the salt named in the row, OD value of printed portion after 400 hours xenon fadeometer
In short: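 Ink loaded into a piezo ink-jet printer (EM-930C) and printed; printed portion irradiated for 400 hours in a xenon fadeometer, then printing density (OD value) measured to judge light fastness.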

[2] = Evaluation of moisture resistance (image-recorded paper at 40° C. and humidity 85%, visual observation); assay type: physicochemical; conditions: for (B) moisture resistance: image-recorded paper at 40° C. and humidity 85%, visually observed
[3] = Solubility in water of the salt
[4] = Evaluation of storage stability of ink (40° C. for 3 months, insoluble matter and clogging); assay type: physicochemical; conditions: recording liquid stored at 40° C. for 3 months; for (C) storage stability: insoluble matter and clogging
In short: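 Ink stored at 40° C. for 3 months, then checked for precipitated insoluble matter. Clogging assessed after long continuous recording on a piezo-type ink-jet printer.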

[5] = Evaluation of light fastness-1 (OD value of printed portion after 100 hours xenon fadeometer); assay type: physicochemical; conditions: ink prepared as in Example 1 from the salt named in the row; OD value of printed portion after 100 hours xenon fadeometer
In short: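 Prints were made on a piezo ink-jet printer. Optical density of the printed portion was measured after 100 hours of irradiation in a xenon fadeometer.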

SMILES	(A)-2 light fastness-2 [1]	(B) moisture resistance [2]	(C) storage stability [4]	(A)-1 light fastness-1 [5]	Solubility in water ([3]; salt type M1 to M4) [%]	(A)-2 light fastness-2 ([1]; NH(CH2CH=CH2)3 salt form)	(A)-2 light fastness-2 ([1]; Na salt form)	Solubility in water ([3]; % by weight) [%]	Evaluation of light fastness-2 ([1]; ink with 3% dye printed with ink-jet printer EM-930C, 400 hours xenon fadeometer, OD value vs before irradiation)	Evaluation of moisture resistance ([2]; image-recorded paper at 40° C., humidity 85%, visual observation)	Evaluation of ink storage stability ([4]; precipitation and clogging)
C[N+](C)(C)C.C[N+](C)(C)C.Cc1c(N=Nc2cc(C(=O)[O-])ccc2C(=O)[O-])c(O)[nH]c(=O)c1C#N	♯	ο	ο					≥ 3			
C[N+](C)(C)C.C[N+](C)(C)C.C[N+](C)(C)C.C[N+](C)(C)C.Cc1c(N=Nc2cc(C(=O)[O-])ccc2C(=O)[O-])c(O)n(CCNc2nc(Cl)nc(NCCn3c(O)c(N=Nc4cc(C(=O)[O-])ccc4C(=O)[O-])c(C)c(C#N)c3=O)n2)c(=O)c1C#N	∘	⊚	∘	⊚				≥ 5			
Cc1c(N=Nc2cccc(C(=O)O)c2C(=O)O)c(O)[nH]c(=O)c1C#N [Compound No. 1]	⊚	◯	◯	⊚	>3						
Cc1c(N=Nc2cc(C(=O)O)ccc2C(=O)O)c(O)[nH]c(=O)c1C#N [Compound No. 11]	⊚	◯	◯	⊚	>3						
Cc1c(C(=O)O)ccc(C(=O)O)c1N=Nc1c(O)[nH]c(=O)c(C#N)c1C [Compound No. 24]	◯	◯	◯	⊚	>5						
Cc1c(N=Nc2cc(Cl)cc(C(=O)O)c2C(=O)O)c(O)[nH]c(=O)c1C#N [compound 3]	⊚	◯	◯	⊚	>3						
Cc1c(N=Nc2cc(S(=O)(=O)O)c(C(=O)O)cc2C(=O)O)c(O)[nH]c(=O)c1C#N [compound 7]	⊚	Δ	◯	⊚	>10						
CNC(=O)c1cc(C(=O)O)c(N=Nc2c(O)[nH]c(=O)c(C#N)c2C)cc1C(=O)O [compound 14]	⊚	◯	◯	⊚	>3						
Cc1c(N=Nc2c(C(=O)O)cccc2C(=O)O)c(O)[nH]c(=O)c1C#N [compound 16]	⊚	Δ	◯	⊚	>5						
Cc1c(N=Nc2c(C(=O)O)cccc2C(=O)O)c(O)n(C(O)CO)c(=O)c1C#N (stereo not drawn) [compound 43]	⊚	Δ	◯	⊚	>5						
Cc1c(N=Nc2cccc(C(=O)O)c2C(=O)O)c(O)n(C(=O)O)c(=O)c1C#N [compound 46]	Δ	◯	Δ	⊚	>5						
Cc1c(N=Nc2cc(C(=O)O)ccc2C(=O)O)c(O)n(-c2cc(S(=O)(=O)O)cc(S(=O)(=O)O)c2)c(=O)c1C#N [compound 142]	◯	◯	◯	⊚	>8						
Cc1c(N=Nc2cc(C(=O)O)ccc2C(=O)O)c(O)n(Cc2cc(S(=O)(=O)O)cc(S(=O)(=O)O)c2)c(=O)c1C#N [compound 149]	◯	◯	◯	⊚	>10						
Cc1c(N=Nc2cc(C(=O)[O-])ccc2C(=O)[O-])c(O)[nH]c(=O)c1C#N.[K+].[K+] [potassium salt of compound No. 11]								≥ 3	♯	ο	ο
Cc1c(N=Nc2cc(C(=O)[O-])ccc2C(=O)[O-])c(O)n(CCNc2nc(Cl)nc(NCCn3c(O)c(N=Nc4cc(C(=O)[O-])ccc4C(=O)[O-])c(C)c(C#N)c3=O)n2)c(=O)c1C#N.[K+].[K+].[K+].[K+] [potassium salt of compound No. 245]	∘	⊚	∘	⊚				≥ 3			

Continued, in another order:

(A)-2 light fastness-2 [1]	(B) moisture resistance [2]	(C) storage stability [4]	(A)-1 light fastness-1 [5]	Solubility in water ([3]; salt type M1 to M4) [%]	(A)-2 light fastness-2 ([1]; NH(CH2CH=CH2)3 salt form)	(A)-2 light fastness-2 ([1]; Na salt form)	SMILES	Solubility in water ([3]; % by weight) [%]	Evaluation of light fastness-2 ([1]; ink with 3% dye printed with ink-jet printer EM-930C, 400 hours xenon fadeometer, OD value vs before irradiation)	Evaluation of moisture resistance ([2]; image-recorded paper at 40° C., humidity 85%, visual observation)	Evaluation of ink storage stability ([4]; precipitation and clogging)
◯	◯	◯	⊚	>5			Cc1c(N=Nc2cccc(C(=O)O)c2C(=O)O)c(O)n(CCCC(=O)O)c(=O)c1C#N [compound 48]				
◯	Δ	◯	⊚	>5			Cc1c(N=Nc2cccc(C(=O)O)c2C(=O)O)c(O)n(Cc2ccc(C(=O)O)cc2)c(=O)c1C#N [compound 58]				
⊚	Δ	◯	⊚	>5			Cc1c(N=Nc2cc(C(=O)O)ccc2C(=O)O)c(O)n(CC(=O)O)c(=O)c1C#N [compound 77]				
	◯	◯	⊚		◯	⊚	Cc1c(N=Nc2cc(C(=O)O)ccc2C(=O)O)c(O)n(CCC(=O)O)c(=O)c1C#N [compound 78]				
⊚⊚	⊚	◯	⊚				Cc1c(N=Nc2cc(C(=O)O)ccc2C(=O)O)c(O)n(Cc2ccc(C(=O)O)c(C(=O)O)c2)c(=O)c1C#N [compound 92]				
⊚ and Δ	Δ and ◯	◯ and Δ	⊚				Cc1c(N=Nc2c(C(=O)O)cccc2C(=O)O)c(O)n(CCC(=O)O)c(=O)c1C#N [compound 95]				
◯	Δ	◯	⊚	>5			Cc1c(N=Nc2cccc(C(=O)O)c2C(=O)O)c(O)n(CS(=O)(=O)O)c(=O)c1C#N [compound 105]				
⊚ and Δ	Δ and ◯	◯ and Δ	⊚	>5			Cc1c(N=Nc2cccc(C(=O)O)c2C(=O)O)c(O)n(CCS(=O)(=O)O)c(=O)c1C#N [compound 106]				
⊚ and Δ and ◯	Δ and ◯	◯ and Δ	⊚				Cc1c(N=Nc2cc(C(=O)O)ccc2C(=O)O)c(O)n(CCS(=O)(=O)O)c(=O)c1C#N [compound 136]				
⊚	Δ	◯	⊚	>5			Cc1c(C(=O)O)ccc(C(=O)O)c1N=Nc1c(C)c(C#N)c(=O)n(CCCS(=O)(=O)O)c1O [compound 137]				
◯	◯	◯	⊚	>8			Cc1c(C(=O)O)ccc(C(=O)O)c1N=Nc1c(C)c(C#N)c(=O)n(CC(O)CC(=O)O)c1O (stereo not drawn) [compound 164]				
⊚		◯	⊚	>5			Cc1c(N=Nc2cc(S(=O)(=O)O)ccc2C(=O)O)c(O)n(CCC(=O)O)c(=O)c1C#N [compound 218]				
